# Test system: dl-PGE1-induced contraction of gerbil colon
# Assay: Inhibition of dl-PGE1-Induced Contraction of Gerbil Colon (prostaglandin antagonist action)
# Type: cell-based, gerbils (Meriones unguiculatus)
# Conditions: Meriones unguiculatus, 1 min; 200 ng./ml. dl-PGE1; read-out: ID50 vs. 200 ng. of PGE1/ml.
# Description: The compounds of this invention are also useful as antagonists of prostaglandin action and accordingly they are potentially useful as anti-inflammatory agents, and as agents for the treatment of periodontal diseases and diarrhea. Testing for prostaglandin antagonist action is carried out in the following manner. Sections of ascending colon, approximately 20 mm. long, from mature male gerbils (Meriones unguiculatus) weighing 70-80 g. were mounted in De Jalon's solution (154 mM NaCl; 5.95 mM NAHCO3; […], 5.64 mM KC and .27 mM CaCl2 in 20 ml. tissue baths) (L and K Glass Co., Lynnhurst, N.J.). The medium was continually gassed with a mixture of 95% 02 -5% CO2 and maintained at 37° C. The tissues were suspended via silk suture threads between a glass hook at the base and a model FT .03C force displacement transducer (Grass Instruments, Quincy, Massachusetts). Contractions were recorded on a Poly-Viso ® polygraph (Sanborn Co., Cambridge, Massachusetts). After mounting, tissues were allowed to stabilize 15-20 minutes during which time adjustments were made to establish and maintain a 0.5 g. resting tension on the muscle. Thereafter, test cycles of 3-5 minutes were begun and consisted of a 1 minute exposure to the potential antagonist, if called for, followed by a 1 minute exposure to the prostaglandin agonist, a 15-30 sec. washout and a recovery period of 2-2.5 minutes. […] During the washout period, the tissue was rinsed with a measured amount equalling 8 volumes of medium. Muscle relaxation was virtually complete by the end of the washout period. During preliminary tests it was noted that a final concentration of 200 ng./ml. of a racemic mixture of synthetic prostaglandin-E1 (dl-PGE1) produced maximal muscle contraction. Following stabilization, muscles were exposed 2 to 3 times to this concentration of dl-PGE1 until a consistent response was recorded. Once maximal responses were established, test cycles with potential antagonists were commenced and were followed alternately with prostaglandin-only test cycle. […] The contraction of the muscle induced by 200 ng./ml. dl-PGE1 following exposure to a given concentration of the potential antagonist was always compared to the response of the tissue to that level of dl PGE1 in the immediately preceding cycle. Using a series of potential antagonist concentrations, an approximate ID50 (concentration at which 50% inhibition was observed) was established. The compounds were also tested against a sub-maximal prostaglandin challenge (20 ng./ml. dl-PGE1) in which case activity is reported in terms of a 50% inhibition of maximum response.
row,IC50 [µg/mL],Structure (SMILES)
1,25 to 30,"CCCC=CC1CCC(=O)C1CCCCCC(F)C(=O)O (stereo not drawn) [9-oxo-2-fluoro-18,19,20-trinor-13-trans-prostenoic acid]"
2,15,"CCCCCC/C=C/[C@H]1CCC(=O)[C@@H]1CCCCCC(CC)C(=O)O (stereo partly drawn) [9-oxo-2-ethyl-13-trans-prostenoic acid, 2-ethyl-9-oxo-13-trans-prostenoic acid]"
3,20,CCCCCC/C=C/[C@@H]1CCC(=O)[C@H]1CCCCSCC(=O)O (relative stereo) [9-oxo-3-thia-13-trans-prostenoic acid]
4,12,"CCCCCC/C=C/[C@@H]1CCC(=O)[C@H]1CCCCCCC(=O)Oc1cccnc1 (relative stereo) [3-pyridyl 9-oxo-13-trans-prostenoate, 3'-pyridyl 9-oxo-13-trans-prostenoate]"

# Same assay, conditions: Meriones unguiculatus, 1 min; sub-maximal challenge, 20 ng./ml. dl-PGE1; 50% inhibition of maximum response; read-out: ID50 vs. 20 ng. of PGE1/ml.
row,IC50 [µg/mL],Structure (SMILES)
1,4 to 5,"CCCCCC/C=C/[C@H]1CCC(=O)[C@@H]1CCCCCC(CC)C(=O)O (stereo partly drawn) [9-oxo-2-ethyl-13-trans-prostenoic acid, 2-ethyl-9-oxo-13-trans-prostenoic acid]"

# Test system: gastric acid secretion
# Assay: Inhibition of Gastric Acid Secretion (Pylorous-Ligated Rat), Shay rat procedure
# Type: in vivo, rats (male, CFE strain)
# Conditions: 100 mg./kg. intraduodenal, read-out: % Inhibition of Control Gastric Acid Secretion
# Description: The novel compounds of the present invention are also effective inhibitors of gastric acid secretion and of ulcer development in experimental animals, and thus are potentially valuable as agents for the control of gastric acid secretion and of gastric erosion and as anti-ulcer agents. Gastric acid secretion inhibitory action is usually measured by the Shay rat procedure ^(1,2) with some modifications as follows. 6 1. Shay et al., Gastroenterology, 5, 43 (1945). 6 2. Shay et al., Gastroenterology, 26, 906 (1954).
# The rats (male, CFE strain) were starved for 48 hours (water was given ad libitum) to permit evacuation of stomach contents. On the morning of the experiment, under ether anesthesia, the abdominal region was shaved and a midline incision (1-1 1/2 inch) was made with a scalpel. With the help of a closed curved hemostat the duodenum was picked up. Upon getting the duodenum into view fingers were used to pull the stomach through the opening, the stomach was then gently manipulated with fingers to rid stomach of air and residual matter which were pushed through the pylorus. Two 5-inch sutures were drawn under the pyloric-duodenal puncture. A ligature, at the juncture, was formed with one of the threads. The second ligature was also formed but not tightened.
# The test compound or the vehicle, usually 1 ml./100 g. body weight, were injected into the duodenum as close as possible to the first ligature. After injection the second ligature was tightened below the injection site to minimize leakage. The stomach was placed back through the opening into the abdominal cavity, the area of incision was washed with saline and the incision was closed with autoclips. (Ocasionally instead of an intraduodenal injection, animals were dosed by the oral or subcutaneous route. In the latter case, dosing was done thirty to sixty minutes before the operation).
# The abdominal cavity was exposed by cutting with scissors and the esophagus close to the stomach was clamped off with a hemostat, the stomach was removed by cutting above the hemostat (the esophagus was cut) and between the two sutures. Extraneous tissue was removed, the stomach washed with saline and blotted on gauze. A slit was carefully made in the stomach which was held over a funnel and the contents were collected in a centrifuge tube. The stomach was further cut along the outside edge and turned inside out. Two ml. of water were used to wash the stomach contents into the respective centrifuge tube. The combined stomach contents and wash were then centrifuged out for 10 minutes in the International Size 2 Centrifuge (setting at 30). The supernatant was collected, volume measured and recorded, 2 drops of phenolphthalein indicator (1% in 95% ethanol) were added and the solution was titrated with 0.02N NaOH (or with 0.04N NaOH when large volumes of stomach contents were encountered) to pH 8.4 (because of usual coloring of the stomach contents, phenolphthalein was only used to permit visual indication that the end point was near) and the amount of acid present was calculated.
# Compounds inducing inhibition of gastric acid secretion of 20% or more were considered active. In a representative operation, and merely by way of illustration, the results obtained with this assay with typical compounds of the present invention are given in Table IIIA.
row,Structure (SMILES),inhibition in vivo at 100 mg/kg [%]
1,"CCOC(=O)CCCCCC[C@H]1C(=O)CC[C@@H]1/C=C/CCCC(C(=O)OCC)C(=O)OCC (relative stereo) [ethyl 20,20-dicarbethoxy-9-oxo-18,19-dinor-13-trans-prostenoate]",38
2,"CCOC(=O)CCCCCC[C@H]1C(=O)CC[C@@H]1/C=C/CCC(C)C (relative stereo) [ethyl 17-methyl-9-oxo-19,10-dinor-13-trans-rpostenoate]",21

# Test system: bronchospasms elicited by histamine
# Assay: Bronchodilator Activity (Konzett Assay) against histamine
# Type: in vivo, guinea pigs
# Conditions: Cavia porcellus; three logarithmic cumulative intravenous doses
# Description: (§1) Bronchodilator activity was determined in guinea pigs against bronchospasms elicited by intravenous injections of 5-hydroxytryptamine, histamine or acetylcholine by the Konzett procedure. [See J. Lulling, P. Lievens, F. El Sayed and J. Prignot, Arzeneimittel-Forschung, 18, 995 (1968)]. In Table IIIC which follows bronchodilator activity for representative compounds of this invention against one or more of the three spasmogenic agents is expressed as an ED50 determined from the results obtained with three logarithmic cumulative intravenous doses.
row,Structure (SMILES),ED50 [mg/kg]
1,CCCCCCC=CC1CCC(O)(c2ccccc2)C1CCCCCCC(=O)O (stereo not drawn) [9-hydroxy-9-phenyl-13-trans-prostenoic acid],5.27
2,"CCCC=CC1CCC(=O)C1CCCCCC(F)C(=O)O (stereo not drawn) [9-oxo-2-fluoro-18,19,20-trinor-13-trans-prostenoic acid]",6.35
3,"CCCCCC/C=C/[C@H]1CCC(=O)[C@@H]1CCCCCC(CC)C(=O)O (stereo partly drawn) [9-oxo-2-ethyl-13-trans-prostenoic acid, 2-ethyl-9-oxo-13-trans-prostenoic acid]",7.75
4,CCCCCC/C=C/[C@@H]1CCC(=O)[C@H]1CCCCSCC(=O)O (relative stereo) [9-oxo-3-thia-13-trans-prostenoic acid],1.24

# Test system: Mycobacterium smegmatis ATCC 606
# Assay: agar-dilution streak-plate antimicrobial assay
# Type: cell-based
# Conditions: Mycolicibacterium smegmatis, ATCC606, read-out: Minimal inhibitory conc. (6)
# Description: The novel compounds of the present invention are also useful as antimicrobial agents. […] In this assay, the compounds to be tested are made up to contain 2.5 mg. of test compound per milliliter of solution. Observing sterile techniques, two-fold serial dilution are made of each test solution. One milliliter of each of the original solutions and of each of the serial dilutions is then added to 9 ml. of warm sterile nutrient agar capable of supporting growth of the bacterial test cultures. A second set of agar dilutions is prepared identical to the first except that the nutrient agar is designed to support the growth of the fungal test cultures. […] The test bacteria and yeast-like fungi are prepared for use by growing in broth overnight. The spores of the filamentous fungi are harvested from mature agar slant cultures and are suspended in sterile physiological saline solution. A loopful of each of the resulting live suspensions is then, still employing sterile techniques, streaked upon the surfaces of each of the agar plates and the resulting streaked plates are then incubated. After an appropriate period of time, each of the streaks on each of the plates is inspected visually and the extent, if any, of bacterial or fungal growth is noted. The minimal inhibitory concentration (expressed in micrograms per milliliter) is defined as the concentration of test compound causing complete inhibition of growth of any particular organism. In a representative operation, and merely by way of illustration, the minimal inhibitory concentration of typical compounds of the present invention against a variety of test organisms as determined in the above-described assay are set forth in Tables II and III below: […]
row,MIC [µg/mL],Structure (SMILES)
1,250,"CCOC(=O)CCCCCC[C@H]1C(=O)CC[C@@H]1/C=C/CCCC(C(=O)OCC)C(=O)OCC (relative stereo) [ethyl 20,20-dicarbethoxy-9-oxo-18,19-dinor-13-trans-prostenoate]"
2,62,"CCOC(=O)CCCCCC[C@H]1C(=O)CC[C@@H]1/C=C/CCC(C)C (relative stereo) [ethyl 17-methyl-9-oxo-19,10-dinor-13-trans-rpostenoate]"
3,50,"CCCCCC/C=C/[C@@H]1CCC(=O)[C@H]1CCCCCCC(=O)Oc1cccnc1 (relative stereo) [3-pyridyl 9-oxo-13-trans-prostenoate, 3'-pyridyl 9-oxo-13-trans-prostenoate]"

# Test system: diastolic blood pressure
# Assay: Prostaglandin-like hypotensive activity in anesthetized rats (minimal dose for about 10 mm. decrease in diastolic blood pressure)
# Type: in vivo, Male Wistar strain rats
# Conditions: Rattus norvegicus; intravenous; decrease of about 10 mm. in diastolic blood pressure
# Description: This procedure is a modification of the technique described by Pike et al., Prostaglandins, Nobel Symposium 2, Stockholm, June, 1966; p, 165.
# Male Wistar strain rats (Royal Hart Farms) averaging approximately 250 grams in weight were fastened to rat boards in a supine position by means of canvas vests and limb ties. The femoral area was infiltrated subcutaneously with lidocaine and the iliac artery and vein exposed and cannulated. Arterial blood pressure (systolic/diastolic) was recorded using a Statham P23 Db pressure transducer-Offner dynograph system. To obtain a stable blood pressure, the animals were anesthetized before use with pentobarbital, 30 mg./kg. of body weight intravenously, and also were given hexamethonium bitartrate, 2 mg./kg. of body weight intravenously. The test compounds were prepared by ultrasonic dispersion in a saline-Tween 80 ® vehicle. A constant intravenous dose volume of 0.5 ml. was administered and test doses ranged from 0.1 to 10.0 mg./kg. of body weight. Increasing or decreasing doses were selected depending on the dose response obtained. In Table I below are set forth the minimal doses required to produce a decrease of about 10 mm. in diastolic blood pressure for typical compounds of the present invention.
row,Structure (SMILES),minimal effective dose [mg/kg]
1,"CCOC(=O)CCCCCC[C@H]1C(=O)CC[C@@H]1/C=C/CCCC(C(=O)OCC)C(=O)OCC (relative stereo) [ethyl 20,20-dicarbethoxy-9-oxo-18,19-dinor-13-trans-prostenoate]",8
2,"CCOC(=O)CCCCCC[C@H]1C(=O)CC[C@@H]1/C=C/CCC(C)C (relative stereo) [ethyl 17-methyl-9-oxo-19,10-dinor-13-trans-rpostenoate]",10
3,"CCCCCC/C=C/[C@@H]1CCC(=O)[C@H]1CCCCCCC(=O)Oc1cccnc1 (relative stereo) [3-pyridyl 9-oxo-13-trans-prostenoate, 3'-pyridyl 9-oxo-13-trans-prostenoate]",0.4 to 4

# Test system: bronchospasms elicited by 5-hydroxytryptamine
# Assay: Bronchodilator Activity (Konzett Assay) against 5-hydroxytryptamine
# Type: in vivo, guinea pigs
# Conditions: Cavia porcellus; three logarithmic cumulative intravenous doses
# Description: as §1
row,Structure (SMILES),ED50 [mg/kg]
1,CCCCCCC=CC1CCC(O)(c2ccccc2)C1CCCCCCC(=O)O (stereo not drawn) [9-hydroxy-9-phenyl-13-trans-prostenoic acid],2.44
2,"CCCC=CC1CCC(=O)C1CCCCCC(F)C(=O)O (stereo not drawn) [9-oxo-2-fluoro-18,19,20-trinor-13-trans-prostenoic acid]",8.36
3,"CCCCCC/C=C/[C@H]1CCC(=O)[C@@H]1CCCCCC(CC)C(=O)O (stereo partly drawn) [9-oxo-2-ethyl-13-trans-prostenoic acid, 2-ethyl-9-oxo-13-trans-prostenoic acid]",2.91
4,CCCCCC/C=C/[C@@H]1CCC(=O)[C@H]1CCCCSCC(=O)O (relative stereo) [9-oxo-3-thia-13-trans-prostenoic acid],1.56

# Test system: bronchospasms elicited by acetylcholine
# Assay: Bronchodilator Activity (Konzett Assay) against acetylcholine
# Type: in vivo, guinea pigs
# Conditions: Cavia porcellus; three logarithmic cumulative intravenous doses
# Description: as §1
row,Structure (SMILES),ED50 [mg/kg]
1,CCCCCCC=CC1CCC(O)(c2ccccc2)C1CCCCCCC(=O)O (stereo not drawn) [9-hydroxy-9-phenyl-13-trans-prostenoic acid],> 10
2,"CCCC=CC1CCC(=O)C1CCCCCC(F)C(=O)O (stereo not drawn) [9-oxo-2-fluoro-18,19,20-trinor-13-trans-prostenoic acid]",> 10
3,"CCCCCC/C=C/[C@H]1CCC(=O)[C@@H]1CCCCCC(CC)C(=O)O (stereo partly drawn) [9-oxo-2-ethyl-13-trans-prostenoic acid, 2-ethyl-9-oxo-13-trans-prostenoic acid]",> 10
4,CCCCCC/C=C/[C@@H]1CCC(=O)[C@H]1CCCCSCC(=O)O (relative stereo) [9-oxo-3-thia-13-trans-prostenoic acid],2.43
